Patent US10053675B2, “Hydroxyphenylpyruvate dioxygenase polypeptides and methods of use” (SYNGENTA PARTICIPATIONS AG, priority 2009, dated 2018)
Where “and” joins values, the source holds several entries; their conditions need not be identical. Identical values can stand only once. Like-named read-outs stand apart in the source and are kept apart here.

Assays:
[1] = molecular target: T1, Avena-derived HPPD SEQ ID NO: 1 (Avena sativa, UniProt A0ACD5V6K6, DEL109-109); test: biochemical; assay type: binding; conditions: for koff / Off rate k1, individual experiments: direct or indirect radiochemical method
Experimental: On rates (governed by an association rate constant, kon) for the formation of the enzyme:inhibitor complexes, EI and off rates (governed by a dissociation rate constant, koff) were determined by methods known in the art and essentially as described in Hawkes et al. (2001) Proc. Bright. Crop. Prot. Conf. Weeds, 2:563-568 and in PCT Publication No. WO 02/46387).
Off rates (k1 in the scheme below) were derived from exchange rate studies where either the test inhibitor, I, or its exchange partner, J were radiolabelled and the data fit according to the scheme below. As noted in Hawkes et al. (2001) Proc. Bright. Crop. Prot. Conf.
After 30 minutes the exchange reaction was initiated with addition of 100 μl 1 mM ‘cold’ structure A with thorough mixing, and, immediately, 150 μl were withdrawn and loaded onto a NAP5 column, the protein exchanged into 50 mM BisTrisPropane buffer at pH 7.0 containing 0.1M KCl by rapid (<2 min) chromatography down a NAP5 G25 Sephadex® column (GE Healthcare Ltd, Buckinghamshire UK) and the amount of ^14C bound to protein measured by Optiphase scintillant using a Tri-Carb® 2900TR scintillation counter (Perkin Elmer, Wellesley, Mass.). Further aliquots were removed and measured in the same way at various times over minutes or hours as required in order to determine the exchange kinetics.
In this case, off rates were determined by preincubating ˜200 pmoles HPPD in reaction buffer (50 mM BTP pH 7, 25 mM Na ascorbate, 4 μg/ml bovine catalase, and 10% glycerol) containing ˜1.0 nmoles ^14C inhibitor at 25° C. in a total assay volume of 1.3 ml. After 30 minutes the reaction vessel was transferred to ice. After a further 10 minutes at ice temperature the exchange reaction was initiated by addition of 100 μl 1 mM Structure A, with thorough mixing, and 150 μl was withdrawn, loaded and quickly exchanged down a NAP5 column in a cold room at ˜5-8° C. in order to quantify the amount of radiolabel remaining bound to the protein at various time from the start of exchange at ice temperature.
Off rates (k1) of HPPD inhibitors that are not readily available radiolabelled or that present other measurement problems (for example high levels of background non-specific protein-binding which can be measured as radiolabel binding that persists in the presence of high concentrations of ‘cold’ inhibitor) may be measured indirectly. […] Exemplary methods are also described in PCT Publication No. WO 02/46387.

[2] = molecular target: T1, Avena-derived HPPD SEQ ID NO: 1; test: On rate (kon, k2) of enzyme:inhibitor complex formation; assay type: binding; conditions: read-out: On rate, activity based method
[3] = test system: tobacco plants expressing wheat HPPD (A7WK82); test: Glasshouse spray test on transgenic tobacco expressing wheat HPPD; assay type: in vivo; conditions: 14 DAT
Experimental: (§1) The CTP/HPPD encoding nucleotide sequence is edited by PCR (or initially synthesized) to include a 5′ XhoI site, a TMV omega enhancer (SEQ ID NO: 86) and a 3′ KpnI site (and to remove any such internal sites).
For example, a master plate of Agrobacterium tumefaciens containing the HPPD expressing binary vector is used to inoculate 10 ml LB (L broth) containing 100 mg/l rifampicin plus 50 mg/l kanamycin using a single bacterial colony. This is incubated overnight at 28° C. shaking at 200 rpm. This entire overnight culture is used to inoculate a 50 ml volume of LB containing the same antibiotics. Again this is cultured overnight at 28° C. shaking at 200 rpm. The Agrobacterium cells are pelleted by centrifuging at 3000 rpm for 15 minutes and then resuspended in MS (Murashige and Skoog) medium containing 30 g/l sucrose, pH 5.9 to an OD (600 nM)=0.6. This suspension is dispensed in 25 ml aliquots into petri dishes.
Clonally micro-propagated tobacco shoot cultures are used to excise young (not yet fully expanded) leaves. The mid rib and outer leaf margins are removed and discarded, and the remaining lamina cut into 1 cm squares. These are transferred to the Agrobacterium suspension for 20 minutes. […]
(§2) As shoots start to regenerate from the callusing leaf explants, these are removed to Shoot elongation medium (MS medium, 30 g/l sucrose, 8 g/l plantagar, 100 mg/l kanamycin, 200 mg/l timentin, 250 mg/l carbenicillin, pH 5.9). Stable transgenic plants readily root within 2 weeks. […]
(§3) Putative transgenic plants that are rooting and showing vigorous shoot growth on the medium incorporating kanamycin are analysed by PCR using primers that amplified a 500 bp fragment within the HPPD transgene. […]
(§4) A sub-set of about 30 plants were then selected on the basis of similar size from each population for spray testing. […] Plants were assessed for damage and scored at 14 days after treatment (DAT). […]

[4] = test system: tobacco plants expressing Pseudomonas fluorescens HPPD (SEQ ID NO: 14); test: Glasshouse spray test on transgenic tobacco expressing Pseudomonas HPPD; assay type: in vivo; conditions: 600 g/ha isoxaflutole, 14 DAT
Experimental: as §1
(§5) For example, a master plate of Agrobacterium tumefaciens containing the HPPD expressing binary vector is used to inoculate 10 ml LB (L broth) containing 100 mg/l rifampicin plus 50 mg/l kanamycin using a single bacterial colony. This is incubated overnight at 28° C. shaking at 200 rpm. This entire overnight culture is used to inoculate a 50 ml volume of LB containing the same antibiotics. Again this is cultured overnight at 28° C. shaking at 200 rpm. […]
as §2, §3, §4

[5] = test system: tobacco plants expressing Arabidopsis HPPD (SEQ ID NO: 13); test: Glasshouse spray test on transgenic tobacco expressing Arabidopsis HPPD; assay type: in vivo; conditions: 600 g/ha isoxaflutole, 14 DAT
Experimental: as §1, §5, §2, §3, §4

[6] = molecular target: T1, Avena-derived HPPD SEQ ID NO: 1; test: HPPD assay for KmHPP and kcat (HPLC/UV quantitation of homogentisate); assay type: biochemical; conditions: 25° C.
Experimental: The assay solution was transferred to Chromacol 03-CVG HPLC vials, sealed and the amount of homogentisate formed in a 40 μl aliquot determined by injection onto a reverse phase Aqua C18 5μ 75×4.6 mm HPLC column running 5.5% acetonitrile 0.1% TFA (Buffer A) at 1.5 ml/min. The column was eluted at 1.5 ml/minute using a 2 minute wash in buffer A, followed by a 2 minute wash in a 30/70 mixture of buffer A and 100% acetonitrile, and a further 3.5 minute wash in buffer A. The elution of homogentisate was monitored by UV at 292 nm and the amount formed in each reaction quantified by comparison with a standard calibration curve.
Km and Vmax values were determined (for example FIG. 1) using a non linear least squares fit using Grafit 4™ software (Erithacus Software, Middlesex, UK). Kcat values were determined by dividing the maximum rate, Vmax expressed in nmol/s by the number of nmoles of HPPD enzyme (based on the concentration determined by active-site titration).
For the alternative assumption of one active site per monomer then calculated kcat values should simply be correspondingly and systematically halved.

[7] = 25° C., read-out: Off rate k1 / koff (average or final estimate)
[8] = 25° C., individual measurements, read-out: Off rate k1, individual experiments
[9] = Kd of inhibitor over Km HPP of SEQ ID NO: 1
[10] = 25° C., individual measurements

CS(=O)(=O)c1cc(C(F)(F)F)ccc1C(=O)C(C#N)C(=O)C1CC1 (stereo not shown) [Compound D]
Kd [1]: 1.36 nM | koff [1, 7]: 4.39e-05 s⁻¹ | koff [1, 8]: 4.5e-05 s⁻¹ | Kd/Km ratio [1, 9]: 0.00025 | kon [2]: 57000 M⁻¹ s⁻¹

CCOc1c(S(C)(=O)=O)ccc(C(=O)C2C(=O)CC(C)CC2=O)c1Cl (stereo not shown) [Compound A]
Kd/Km ratio [1, 9]: 0.000036

Cc1c(C(=O)C2C=NN(C)C2=O)ccc(S(C)(=O)=O)c1C1=NOCC1 (stereo not shown) [Compound F]
koff [1, 7]: 6.72e-05 s⁻¹ | Off rate k1, individual experiments [1, 10]: 6e-05 s⁻¹ and 7e-05 s⁻¹ and 6.83e-05 s⁻¹ | koff [1, 8]: 7.08e-05 s⁻¹

CS(=O)(=O)c1ccc(C(=O)C2C(=O)CCCC2=O)c([N+](=O)[O-])c1 [Compound B, mesotrione]
Events exhibiting < or equal to 10% damage ([3]; 600 g/ha mesotrione): Five out of 33

CS(=O)(=O)c1ccc(C(=O)C2C(=O)CCCC2=O)c(Cl)c1COCC(F)(F)F [Compound E]
Kd [1]: 0.228 nM | Kd/Km ratio [1]: 0.000042 | Off rate k1, individual experiments [1, 10]: 2.02E-05 s^−1 and 3.00E-05 s^−1 and 3.67E-05 s^−1 and 3.17E-05 s^−1 (2×) and 2.67E-05 s^−1 (2×) and 3.33E- 05 s^−1 | koff ([1]; read-out: Off rate k1, individual experiments, 25° C., individual measurements): 3.08e-05 s⁻¹

CS(=O)(=O)c1cc(C(F)(F)F)ccc1C(=O)c1cnoc1C1CC1 [isoxaflutole]
Bleaching [4]: Full and Partly | Plants showing 50% damage or less [4]: 4/32 | Bleaching ([3]; 600 g/ha isoxaflutole): Full and Green and Partly | Events showing less than 20% damage ([3]; 600 g/ha isoxaflutole): 3/33 | Bleaching [5]: Full

COCCOCc1nc(C(F)(F)F)ccc1C(=O)C1C(=O)C2CCC(C2)C1=O (stereo not shown) [Compound C]
Kd [1]: 7.1 nM | koff [1, 7]: 5.3e-05 s⁻¹ | koff [1, 8]: 5.67e-05 s⁻¹ | Kd/Km ratio [1, 9]: 0.0013

B1: SEQ ID NO: 1: the HPPD amino acid sequence of Avena sativa (protein, listed as Avena sativa)
chain: MPPTPATATGAAAAAVTPEHAARSFPRVVRVNPRSDRFPVLSFHHVELWCADAASAAGRFSFALGAPLAARSDLSTGNSAHASLLLRSGALAFLFTAPYAPPPQEAATAATASIPSFSADAARTFAAAHGLAVRSVGVRVADAAEAFRVSVAGGARPAFAPADLGHGFGLAEVELYGDVVLRFVSYPDETDLPFLPGFERVSSPGAVDYGLTRFDHVVGNVPEMAPVIDYMKGFLGFHEFAEFTAEDVGTTESGLNSVVLANNSEAVLLPLNEPVHGTKRRSQIQTYLEYHGGPGVQHIALASNDVLRTLREMRARTPMGGFEFMAPPQAKYYEGVRRIAGDVLSEEQIKECQELGVLVDRDDQGVLLQIFTKPVGDRPTFFLEMIQRIGCMEKDEVGQEYQKGGCGGFGKGNFSELFKSIEDYEKSLEVKQSVVAQKS
Km ([6]; pH 7.0): 5.38 µM | kcat average ([6]; one active-site per dimer assumed): 6.46 s⁻¹
